This is an account of results in US10633547B2, “Method for reducing microbial attack of industrial products” (Thor GmbH, priority 2016, dated 2020).

Data set [1] is described as follows: decomposition of 5-chloro-2-methylisothiazolin-3-one in dispersion paint by cysteine, HPLC. The data set is classed as physicochemical. The following applies: 3 hours after adding 50 ppm cysteine, based on the dispersion paint. From the text:
In order to produce a paint, which is harmless for allergy suffers with respect to the 5-chloro-2-methylisothiazolin-3-one and 2-methylisothiazolin-3-one, from the dispersion paint, which contained significant quantities of 5-chloro-2-methylisothiazolin-3-one, these isothiazolin-3-ones were decomposed by adding 50 ppm cysteine, based on the dispersion paint.

The test system of data set [2] is microorganisms introduced by the individual components of the paint. Put plainly: microbiological testing of dispersion paint preserved with 5-chloro-2-methylisothiazolin-3-one. The data set is classed as cell-based. The following applies: 20 ppm 5-chloro-2-methylisothiazolin-3-one with <1 wt % 2-methylisothiazolin-3-one; water-based dispersion paint; growth detectable in individual components. How it is done:
20 ppm 5-chloro-2-methylisothiazolin-3-one, with a content of 2-methylisothiazolin-3-one of <1 wt %, was added to a preservative-free styrene acrylate dispersion. The styrene acrylate dispersion preserved in this manner was then used to produce a water-based dispersion paint. The paint produced had the following composition: • 25.7 wt % water • 0.2 wt % acrylate-based wetting and dispersion agents • 0.2 wt % mineral oil-based defoamer • 2.0 wt % water softener (sodium polyphosphate) • 0.2 wt % ammonia • 4.0 wt % titanium oxide (pigment) • 51.0 wt % calcium carbonate (filler) • 5.0 wt % talcum (filler) • 0.4 wt % cellulose ether • 2.0 wt % organic solvent for lowering the minimum film-forming temperature • 9.0 wt % of the styrene acrylate dispersion preserved with 20 ppm 5-chloro-2-methylisothiazolin-3-one • 20 ppm 5-chloro-2-methylisothiazolin-3-one, with a content of 2-methylisothiazolin-3-one of <1 wt %

Data set [3] has as its system newly introduced microorganisms. Put plainly: shelf life of dispersion paint after post-preservation. Conditions: 50 ppm 2-methyl-1,2-benzisothiazolin-3-one and 10 ppm zinc oxide added after decomposition of CMIT by cysteine. The method, then: The paint produced in this manner was now free of microorganisms through the use of the effective broad-spectrum biocide 5-chloro-2-methylisothiazolin-3-one, but susceptible to newly introduced microorganisms, which can infiltrate the paint during storage, due to the decomposition of the biocide by cysteine.
In order to protect the paint from such a microbial attack during storage, 50 ppm 2-methyl-1,2-benzisothiazolin-3-one and 10 ppm zinc oxide, based on the dispersion paint, were added to the dispersion paint for post-preservation.

The nature of data set [4]: decomposition of 2-methylisothiazolin-3-one in aqueous dispersion paint using sodium thiosulfate. The data set is classed as physicochemical. From the text: However, it is disadvantageous that, according to the described method, said isothiazolinones, particularly MIT, are not quantitatively and/or irreversibly destroyed, as a result of which they are still contained in the products and reaction products and still can cause problems for people prone to allergic reactions, and/or cause contact dermatitis or aerogenic contact dermatitis in highly sensitive people.

Each structure is given as a SMILES string.

As to `Cn1sc(Cl)cc1=O` [5-chloro-2-methylisothiazolin-3-one], the “5-chloro-2-methylisothiazolin-3-one detectable in the dispersion paint by HPLC” value in data set [1] is listed as “no more 5-chloro-2-methylisothiazolin-3-one was detectable”. The “microbial growth in the dispersion paint” value in data set [2] is listed as “no microbial growth was found”. As to `Cn1sc2ccccc2c1=O` [2-methyl-1,2-benzisothiazolin-3-one], the “shelf life of the paint” value in data set [3] is recorded as “at least 6 months”. As to `Cn1sccc1=O` [2-methylisothiazolin-3-one], the “destruction of 2-methylisothiazolin-3-one using sodium thiosulfate” value in data set [4] is “could not be quantitatively or irreversibly destroyed”.
